Reference: ChEMBL document CHEMBL1177794, “Broad spectrum alkynyl inhibitors of T315I Bcr-Abl” (Bioorg Med Chem Lett, 2010)

What was measured:
[1] = target: Myosin light chain kinase family member 4 (Homo sapiens) (UniProt Q86YV6); experiment: Inhibition of MYLK4 at 10 uM
[2] = target: Casein kinase I isoform alpha-like (Homo sapiens) (UniProt Q8N752); experiment: Inhibition of CSNK1A1L at 10 uM; settings: values are per cent of control
[3] = target: Cyclin-dependent kinase 7 (Homo sapiens) (UniProt P50613); experiment: Inhibition of CDK7 at 10 uM; values are per cent of control
[4] = target: Mitogen-activated protein kinase 4 (Homo sapiens) (UniProt P31152); experiment: Inhibition of ERK4 at 10 uM; settings: values are per cent of control
[5] = target: Receptor-interacting serine/threonine-protein kinase 4 (Homo sapiens) (UniProt P57078); experiment: Inhibition of RIPK4 at 10 uM
[6] = target: Testis-specific serine/threonine-protein kinase 1 (Homo sapiens) (UniProt Q9BXA7); experiment: Inhibition of TSSK1B at 10 uM; settings: values are per cent of control
[7] = target: Calcium/calmodulin-dependent protein kinase type 1G (Homo sapiens) (UniProt Q96NX5); experiment: Inhibition of CAMK1G at 10 uM; settings: values are per cent of control
[8] = system: Phosphatidylinositol 4,5-bisphosphate 3-kinase catalytic subunit alpha isoform (Homo sapiens), P42336 [M1043I]; experiment: Inhibition of PIK3CA M1043I mutant at 10 uM
[9] = target: cGMP-dependent protein kinase 2 (Homo sapiens) (UniProt Q13237); experiment: Inhibition of PRKG2 at 10 uM
[10] = target: Mitogen-activated protein kinase kinase kinase 10 (Homo sapiens) (UniProt Q02779); experiment: Inhibition of MLK2 at 10 uM
[11] = target: Ribosomal protein S6 kinase alpha-1 (Homo sapiens) (UniProt Q15418); experiment: Inhibition of RSK1 N-terminal domain1 at 10 uM
[12] = target: Serine/threonine-protein kinase DCLK3 (Homo sapiens) (UniProt Q9C098); experiment: Inhibition of DCAMKL3 at 10 uM; settings: values are per cent of control
[13] = target: Mitogen-activated protein kinase kinase kinase kinase 4 (Homo sapiens) (UniProt O95819); experiment: Inhibition of MAP4K4 at 10 uM; settings: values are per cent of control
[14] = target: SRSF protein kinase 2 (Homo sapiens) (UniProt P78362); experiment: Inhibition of SRPK2 at 10 uM
[15] = target: Leucine-rich repeat serine/threonine-protein kinase 2 (Homo sapiens) (UniProt Q5S007); experiment: Inhibition of LRRK2 at 10 uM; settings: values are per cent of control
[16] = system: Hepatocyte growth factor receptor (Homo sapiens), P08581 [M1250T]; experiment: Inhibition of MET M1250T mutant at 10 uM
[17] = target: Mitogen-activated protein kinase 8 (Homo sapiens) (UniProt P45983); experiment: Inhibition of JNK1 at 10 uM; values are per cent of control
[18] = target: Wee1-like protein kinase (Homo sapiens) (UniProt P30291); experiment: Inhibition of WEE1 at 10 uM; settings: values are per cent of control
[19] = system: Hepatocyte growth factor receptor (Homo sapiens), P08581 [Y1235D]; experiment: Inhibition of MET Y1235D mutant at 10 uM
[20] = target: Eukaryotic translation initiation factor 2-alpha kinase 1 (Homo sapiens) (UniProt Q9BQI3); experiment: Inhibition of EIF2AK1 at 10 uM; settings: values are per cent of control
[21] = target: LIM domain kinase 1 (Homo sapiens) (UniProt P53667); experiment: Inhibition of LIMK1 at 10 uM; settings: values are per cent of control
[22] = target: Serine/threonine-protein kinase 4 (Homo sapiens) (UniProt Q13043); experiment: Inhibition of MST1 at 10 uM
[23] = target: Serine/threonine-protein kinase LATS2 (Homo sapiens) (UniProt Q9NRM7); experiment: Inhibition of LATS2 at 10 uM; values are per cent of control
[24] = target: Mitogen-activated protein kinase kinase kinase 4 (Homo sapiens) (UniProt Q9Y6R4); experiment: Inhibition of MAP3K4 at 10 uM; settings: values are per cent of control
[25] = target: Discoidin domain-containing receptor 2 (Homo sapiens) (UniProt Q16832); experiment: Inhibition of DDR2 at 10 uM; settings: values are per cent of control

Sequence of Mitogen-activated protein kinase 8 (Homo sapiens) (P45983 whole entry): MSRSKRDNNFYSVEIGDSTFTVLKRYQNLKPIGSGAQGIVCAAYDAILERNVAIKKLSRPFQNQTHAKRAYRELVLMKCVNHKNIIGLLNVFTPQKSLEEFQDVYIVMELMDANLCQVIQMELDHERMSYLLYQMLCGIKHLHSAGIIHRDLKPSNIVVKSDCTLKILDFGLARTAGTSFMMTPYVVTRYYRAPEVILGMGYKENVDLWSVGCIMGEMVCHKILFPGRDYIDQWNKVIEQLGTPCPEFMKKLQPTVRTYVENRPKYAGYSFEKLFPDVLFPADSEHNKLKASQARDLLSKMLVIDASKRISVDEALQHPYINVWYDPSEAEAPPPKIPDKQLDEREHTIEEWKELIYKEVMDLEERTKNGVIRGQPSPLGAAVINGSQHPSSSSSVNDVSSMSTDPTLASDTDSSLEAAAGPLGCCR
Sequence of Wee1-like protein kinase (Homo sapiens) (P30291 whole entry, looked up): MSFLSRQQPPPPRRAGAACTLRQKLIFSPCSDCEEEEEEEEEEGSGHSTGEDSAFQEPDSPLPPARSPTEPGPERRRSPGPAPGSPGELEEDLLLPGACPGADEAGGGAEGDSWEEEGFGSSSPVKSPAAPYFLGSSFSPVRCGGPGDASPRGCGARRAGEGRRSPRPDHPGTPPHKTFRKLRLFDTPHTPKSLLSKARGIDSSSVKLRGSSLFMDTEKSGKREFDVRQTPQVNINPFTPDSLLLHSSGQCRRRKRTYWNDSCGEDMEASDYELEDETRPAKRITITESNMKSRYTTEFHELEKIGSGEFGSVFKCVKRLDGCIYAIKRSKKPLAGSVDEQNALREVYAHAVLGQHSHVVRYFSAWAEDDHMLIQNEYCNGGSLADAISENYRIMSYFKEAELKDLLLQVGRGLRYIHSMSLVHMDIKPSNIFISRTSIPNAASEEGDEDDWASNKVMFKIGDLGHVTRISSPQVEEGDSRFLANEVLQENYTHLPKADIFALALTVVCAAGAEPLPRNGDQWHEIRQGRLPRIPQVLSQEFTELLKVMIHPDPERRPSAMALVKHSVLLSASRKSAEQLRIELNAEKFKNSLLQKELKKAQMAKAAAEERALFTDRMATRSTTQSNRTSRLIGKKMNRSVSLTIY
Sequence of cGMP-dependent protein kinase 2 (Homo sapiens) (Q13237 whole entry): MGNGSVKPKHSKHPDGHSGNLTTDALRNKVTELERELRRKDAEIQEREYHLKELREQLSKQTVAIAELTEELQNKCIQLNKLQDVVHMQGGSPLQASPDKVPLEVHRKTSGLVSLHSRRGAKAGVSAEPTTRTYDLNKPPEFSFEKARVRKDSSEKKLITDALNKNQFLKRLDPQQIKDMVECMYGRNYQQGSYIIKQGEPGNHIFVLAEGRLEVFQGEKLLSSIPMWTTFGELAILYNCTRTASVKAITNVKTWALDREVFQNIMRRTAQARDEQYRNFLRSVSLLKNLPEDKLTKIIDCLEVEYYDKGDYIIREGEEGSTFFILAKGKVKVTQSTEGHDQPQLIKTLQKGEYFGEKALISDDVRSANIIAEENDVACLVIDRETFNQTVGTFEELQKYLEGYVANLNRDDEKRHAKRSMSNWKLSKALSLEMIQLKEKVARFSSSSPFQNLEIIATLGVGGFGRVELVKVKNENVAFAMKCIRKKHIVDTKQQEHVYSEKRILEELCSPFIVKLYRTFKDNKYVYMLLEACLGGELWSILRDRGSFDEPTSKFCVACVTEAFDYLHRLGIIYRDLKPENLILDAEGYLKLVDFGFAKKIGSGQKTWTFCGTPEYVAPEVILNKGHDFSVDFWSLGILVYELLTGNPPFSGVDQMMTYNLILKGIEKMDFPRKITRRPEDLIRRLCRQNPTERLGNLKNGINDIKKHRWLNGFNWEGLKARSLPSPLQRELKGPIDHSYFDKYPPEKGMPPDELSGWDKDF
Sequence of Receptor-interacting serine/threonine-protein kinase 4 (Homo sapiens) (P57078 whole entry): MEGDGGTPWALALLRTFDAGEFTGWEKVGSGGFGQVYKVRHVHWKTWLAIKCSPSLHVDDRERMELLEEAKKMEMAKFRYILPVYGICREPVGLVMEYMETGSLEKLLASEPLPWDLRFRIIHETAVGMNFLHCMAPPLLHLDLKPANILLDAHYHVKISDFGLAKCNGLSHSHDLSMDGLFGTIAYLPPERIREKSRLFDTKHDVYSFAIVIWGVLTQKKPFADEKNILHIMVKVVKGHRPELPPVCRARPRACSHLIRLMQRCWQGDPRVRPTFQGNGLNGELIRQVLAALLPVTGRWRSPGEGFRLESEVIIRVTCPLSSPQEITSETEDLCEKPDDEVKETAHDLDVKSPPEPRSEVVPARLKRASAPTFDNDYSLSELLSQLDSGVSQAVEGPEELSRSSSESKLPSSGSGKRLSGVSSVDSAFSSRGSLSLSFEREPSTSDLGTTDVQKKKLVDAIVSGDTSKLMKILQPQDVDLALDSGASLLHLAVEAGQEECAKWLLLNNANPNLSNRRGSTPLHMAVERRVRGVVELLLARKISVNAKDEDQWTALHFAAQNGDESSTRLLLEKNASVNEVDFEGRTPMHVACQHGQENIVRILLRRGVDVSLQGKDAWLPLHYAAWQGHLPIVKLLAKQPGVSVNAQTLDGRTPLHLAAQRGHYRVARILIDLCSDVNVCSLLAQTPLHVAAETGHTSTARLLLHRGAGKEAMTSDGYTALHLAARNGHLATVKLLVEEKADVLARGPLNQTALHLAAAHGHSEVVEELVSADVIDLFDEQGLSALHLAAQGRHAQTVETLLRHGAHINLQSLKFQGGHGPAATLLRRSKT
Sequence of Mitogen-activated protein kinase kinase kinase kinase 4 (Homo sapiens) (O95819 2-1239 limits assumed): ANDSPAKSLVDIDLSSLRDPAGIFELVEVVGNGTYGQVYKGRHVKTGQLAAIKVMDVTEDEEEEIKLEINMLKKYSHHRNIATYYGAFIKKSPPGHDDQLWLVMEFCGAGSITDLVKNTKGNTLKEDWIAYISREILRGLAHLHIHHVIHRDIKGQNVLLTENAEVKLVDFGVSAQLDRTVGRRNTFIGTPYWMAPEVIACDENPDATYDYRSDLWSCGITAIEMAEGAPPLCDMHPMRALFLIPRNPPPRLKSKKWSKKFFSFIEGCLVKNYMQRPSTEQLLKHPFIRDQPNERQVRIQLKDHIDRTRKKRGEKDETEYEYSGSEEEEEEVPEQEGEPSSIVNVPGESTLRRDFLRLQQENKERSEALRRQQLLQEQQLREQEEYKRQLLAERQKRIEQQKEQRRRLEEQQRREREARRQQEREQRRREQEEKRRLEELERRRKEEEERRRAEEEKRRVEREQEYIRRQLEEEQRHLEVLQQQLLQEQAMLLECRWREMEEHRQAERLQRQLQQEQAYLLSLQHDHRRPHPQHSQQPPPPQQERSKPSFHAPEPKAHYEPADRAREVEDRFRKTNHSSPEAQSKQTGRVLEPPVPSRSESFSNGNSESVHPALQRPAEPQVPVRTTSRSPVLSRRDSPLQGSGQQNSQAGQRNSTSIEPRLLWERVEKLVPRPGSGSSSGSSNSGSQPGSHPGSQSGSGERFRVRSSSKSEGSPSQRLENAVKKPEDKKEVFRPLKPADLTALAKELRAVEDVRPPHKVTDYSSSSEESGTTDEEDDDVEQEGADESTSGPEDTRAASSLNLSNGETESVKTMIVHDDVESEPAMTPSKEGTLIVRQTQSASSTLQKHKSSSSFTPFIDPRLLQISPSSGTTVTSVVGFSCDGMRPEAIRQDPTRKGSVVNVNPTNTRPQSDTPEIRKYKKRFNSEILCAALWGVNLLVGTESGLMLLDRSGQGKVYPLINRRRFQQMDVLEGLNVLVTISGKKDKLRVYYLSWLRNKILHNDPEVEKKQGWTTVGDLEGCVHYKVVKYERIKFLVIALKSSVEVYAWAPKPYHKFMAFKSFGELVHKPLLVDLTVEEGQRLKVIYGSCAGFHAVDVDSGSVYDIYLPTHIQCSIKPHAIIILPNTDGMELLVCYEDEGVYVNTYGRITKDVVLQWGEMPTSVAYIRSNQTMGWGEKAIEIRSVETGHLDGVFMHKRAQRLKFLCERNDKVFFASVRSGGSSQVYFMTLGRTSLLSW
Sequence of Phosphatidylinositol 4,5-bisphosphate 3-kinase catalytic subunit alpha isoform (Homo sapiens), P42336 [M1043I] (P42336 whole entry M1043I, canonical isoform): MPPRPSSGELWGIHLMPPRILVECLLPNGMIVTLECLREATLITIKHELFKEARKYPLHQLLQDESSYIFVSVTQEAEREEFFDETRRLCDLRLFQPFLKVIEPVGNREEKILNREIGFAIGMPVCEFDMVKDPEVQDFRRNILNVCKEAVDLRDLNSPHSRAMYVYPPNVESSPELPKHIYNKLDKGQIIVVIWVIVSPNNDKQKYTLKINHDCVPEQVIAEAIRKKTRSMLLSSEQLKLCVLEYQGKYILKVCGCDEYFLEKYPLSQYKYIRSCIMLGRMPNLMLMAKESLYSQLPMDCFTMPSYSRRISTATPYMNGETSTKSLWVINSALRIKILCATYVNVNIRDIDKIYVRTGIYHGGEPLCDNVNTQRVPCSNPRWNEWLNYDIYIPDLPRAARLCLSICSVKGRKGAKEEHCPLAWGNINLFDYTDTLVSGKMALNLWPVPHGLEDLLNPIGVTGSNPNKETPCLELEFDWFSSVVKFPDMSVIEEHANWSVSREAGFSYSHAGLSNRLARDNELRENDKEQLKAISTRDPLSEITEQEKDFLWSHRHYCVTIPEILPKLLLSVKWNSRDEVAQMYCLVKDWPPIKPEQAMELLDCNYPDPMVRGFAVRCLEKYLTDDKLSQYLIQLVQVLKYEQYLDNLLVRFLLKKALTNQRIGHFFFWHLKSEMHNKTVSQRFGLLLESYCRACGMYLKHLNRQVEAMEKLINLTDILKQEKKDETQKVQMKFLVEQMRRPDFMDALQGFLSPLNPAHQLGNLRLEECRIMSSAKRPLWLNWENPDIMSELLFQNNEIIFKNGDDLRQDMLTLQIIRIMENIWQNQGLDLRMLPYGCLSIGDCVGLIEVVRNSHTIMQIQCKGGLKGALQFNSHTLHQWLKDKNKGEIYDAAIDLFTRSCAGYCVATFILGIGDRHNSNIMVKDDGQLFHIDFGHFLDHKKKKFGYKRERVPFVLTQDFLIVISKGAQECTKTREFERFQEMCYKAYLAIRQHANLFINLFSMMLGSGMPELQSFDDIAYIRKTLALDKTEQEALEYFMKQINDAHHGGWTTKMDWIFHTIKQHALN

| Compound | inhibition [1] [%] | residual binding, % of control [2] [%] | level, % of control [3] [%] | residual binding, % of control [4] [%] | inhibition [5] [%] | residual binding, % of control [6] [%] | residual binding, % of control [7] [%] | inhibition [8] [%] | inhibition [9] [%] | inhibition [10] [%] | inhibition [11] [%] | residual binding, % of control [12] [%] | residual binding, % of control [13] [%] | inhibition [14] [%] | residual binding, % of control [15] [%] | inhibition [16] [%] | level, % of control [17] [%] | residual binding, % of control [18] [%] | inhibition [19] [%] | residual binding, % of control [20] [%] | further results |
| --- | --- | --- | --- | --- | --- | --- | --- | --- | --- | --- | --- | --- | --- | --- | --- | --- | --- | --- | --- | --- | --- |
| CCN1CCN(Cc2ccc(NC(=O)c3ccc(C)c(C#Cc4cccnc4)c3)cc2C(F)(F)F)CC1 | 68 | 89 | 1.6 | 100 | 48 | 92 | 100 | 83 | 97 | 40 | 53 | 100 | 3.3 | 81 | 3.4 | 73 | 0.55 | 100 | 61 | 83 | residual binding, % of control [21]: 3%; inhibition [22]: 23%; level, % of control [23]: 7.6%; residual binding, % of control [24]: 100%; residual binding, % of control [25]: 1% |
| CCN1CCN(Cc2ccc(NC(=O)c3ccc(C)c(C#Cc4cnc5[nH]ccc5c4)c3)cc2C(F)(F)F)CC1 | 40 | 75 | 4 | 26 | 8 | 98 | 92 | 100 | 77 | 9.5 | 34 | 100 | 1.8 | 63 | 6.2 | 59 | 0.45 | 100 | 4.9 | 72 | residual binding, % of control [21]: 1.2%; inhibition [22]: 12%; level, % of control [23]: 7%; residual binding, % of control [24]: 62%; residual binding, % of control [25]: 2.8% |
